Test: Influencing factor stability study on crystal forms (light, high temperature, high humidity, 30 days)
Assay type: physicochemical
[1] = Light exposure (4500 Lux), 5 days
[2] = Light exposure (4500 Lux), 10 days
[3] = Light exposure (4500 Lux), 30 days
[4] = Light exposure (4500 Lux), 7 days
[5] = Light exposure (4500 Lux), 14 days

C=CC(=O)N1CCN2C(=O)c3cc(F)c(-c4ccc(F)c5sc(N)c(C#N)c45)c4c(Cl)nn(c34)CC[C@H]2C1 [crystal form C]
98.1%: Purity (%) (75% RH, 5 days) | Purity (%) (75% RH, 10 days) | Purity (%) (75% RH, 30 days) | Purity (%) (92.5% RH, 5 days) | Purity (%) (92.5% RH, 10 days) | Purity (%) (92.5% RH, 30 days)
98.2%: Purity (%) (Initial, 0 days)
97.6%: Purity (%) (40 °C, 10 days)
97.2%: Purity (%) (40 °C, 30 days)
98.0%: Purity (%) (40 °C, 5 days) | Purity (%) (60 °C, 5 days) | Purity (%) [1]
Crystal form C: Crystal form (Initial, 0 days)
Off-white solid: Color and state (40 °C, 5 days) | Color and state (40 °C, 10 days) | Color and state (40 °C, 30 days) | Color and state (60 °C, 5 days) | Color and state (60 °C, 10 days) | Color and state (60 °C, 30 days) | Color and state (75% RH, 5 days) | Color and state (75% RH, 10 days) | Color and state (75% RH, 30 days) | Color and state (92.5% RH, 5 days) | Color and state (92.5% RH, 10 days) | Color and state (92.5% RH, 30 days) | Color and state (Initial, 0 days) | Color and state [1] | Color and state [2] | Color and state [3]
Did not change: Crystal form (40 °C, 5 days) | Crystal form (40 °C, 10 days) | Crystal form (40 °C, 30 days) | Crystal form (60 °C, 5 days) | Crystal form (60 °C, 10 days) | Crystal form (60 °C, 30 days) | Crystal form (75% RH, 5 days) | Crystal form (75% RH, 10 days) | Crystal form (75% RH, 30 days) | Crystal form (92.5% RH, 5 days) | Crystal form (92.5% RH, 10 days) | Crystal form (92.5% RH, 30 days) | Crystal form [1] | Crystal form [2] | Crystal form [3]
97.9%: Purity (%) (60 °C, 10 days) | Purity (%) [2]
97.5%: Purity (%) (60 °C, 30 days) | Purity (%) [3]

C=CC(=O)N1CCN2C(=O)c3cc(F)c(-c4ccc(F)c5sc(N)c(C#N)c45)c4c(Cl)nn(c34)CC[C@H]2C1 [crystal form L]
99.0%: Purity (%) (40 °C, 14 days) | Purity (%) (60 °C, 14 days)
98.3%: Purity (%) [3]
Off-white solid: Color and state (40 °C, 7 days) | Color and state (40 °C, 14 days) | Color and state (40 °C, 30 days) | Color and state (60 °C, 7 days) | Color and state (60 °C, 14 days) | Color and state (60 °C, 30 days) | Color and state (75% RH, 7 days) | Color and state (75% RH, 14 days) | Color and state (75% RH, 30 days) | Color and state (92.5% RH, 7 days) | Color and state (92.5% RH, 14 days) | Color and state (92.5% RH, 30 days) | Color and state (Initial, 0 days) | Color and state [4] | Color and state [5] | Color and state [3]
98.9%: Purity (%) (40 °C, 30 days) | Purity (%) (60 °C, 30 days)
99.1%: Purity (%) (40 °C, 7 days) | Purity (%) (60 °C, 7 days) | Purity (%) (75% RH, 7 days) | Purity (%) (75% RH, 14 days) | Purity (%) (75% RH, 30 days) | Purity (%) (92.5% RH, 7 days) | Purity (%) (92.5% RH, 14 days) | Purity (%) (92.5% RH, 30 days) | Purity (%) (Initial, 0 days)
98.6%: Purity (%) [4]
98.2%: Purity (%) [5]
Crystal form L: Crystal form (Initial, 0 days)
Did not change: Crystal form (40 °C, 7 days) | Crystal form (40 °C, 14 days) | Crystal form (40 °C, 30 days) | Crystal form (60 °C, 7 days) | Crystal form (60 °C, 14 days) | Crystal form (60 °C, 30 days) | Crystal form (75% RH, 7 days) | Crystal form (75% RH, 14 days) | Crystal form (75% RH, 30 days) | Crystal form (92.5% RH, 7 days) | Crystal form (92.5% RH, 14 days) | Crystal form (92.5% RH, 30 days) | Crystal form [4] | Crystal form [5] | Crystal form [3]

C=CC(=O)N1CCN2C(=O)c3cc(F)c(-c4ccc(F)c5sc(N)c(C#N)c45)c4c(Cl)nn(c34)CC[C@H]2C1 [crystal form H]
97.7%: Purity (%) (40 °C, 30 days) | Purity (%) (60 °C, 30 days)
98.3%: Purity (%) (60 °C, 7 days) | Purity (%) (75% RH, 14 days) | Purity (%) (92.5% RH, 7 days) | Purity (%) (92.5% RH, 14 days) | Purity (%) (92.5% RH, 30 days) | Purity (%) (Initial, 0 days)
94.0%: Purity (%) [3]
97.8%: Purity (%) [4]
Did not change: Crystal form (40 °C, 7 days) | Crystal form (40 °C, 14 days) | Crystal form (40 °C, 30 days) | Crystal form (60 °C, 7 days) | Crystal form (60 °C, 14 days) | Crystal form (60 °C, 30 days) | Crystal form (75% RH, 7 days) | Crystal form (75% RH, 14 days) | Crystal form (75% RH, 30 days) | Crystal form (92.5% RH, 7 days) | Crystal form (92.5% RH, 14 days) | Crystal form (92.5% RH, 30 days) | Crystal form [4] | Crystal form [5] | Crystal form [3]
98.1%: Purity (%) (40 °C, 14 days)
96.8%: Purity (%) [5]
98.2%: Purity (%) (40 °C, 7 days) | Purity (%) (60 °C, 14 days)
98.4%: Purity (%) (75% RH, 7 days) | Purity (%) (75% RH, 30 days)
Off-white solid: Color and state (40 °C, 7 days) | Color and state (40 °C, 14 days) | Color and state (40 °C, 30 days) | Color and state (60 °C, 7 days) | Color and state (60 °C, 14 days) | Color and state (60 °C, 30 days) | Color and state (75% RH, 7 days) | Color and state (75% RH, 14 days) | Color and state (75% RH, 30 days) | Color and state (92.5% RH, 7 days) | Color and state (92.5% RH, 14 days) | Color and state (92.5% RH, 30 days) | Color and state (Initial, 0 days) | Color and state [4] | Color and state [5] | Color and state [3]
Crystal form H: Crystal form (Initial, 0 days)
